According to article PMC9599461, “Stereoselectivity in the Membrane Transport of Phenylethylamine Derivatives by Human Monoamine Transporters and Organic Cation Transporters 1, 2, and 3” (Biomolecules, 2022):
Where two headings read alike, the source gives them in different places. Marks after values point to notes of the source that are not given here.

Key:
SERT [1] = biological target: T1, SERT (Homo sapiens, UniProt P31645);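 note: uptake into HEK293 cells stably expressing human SERT over 2 min, enantiomers measured in cell lysate by chiral HPLC-MS/MS, normalized to total protein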
T1 sequence (P31645 whole entry): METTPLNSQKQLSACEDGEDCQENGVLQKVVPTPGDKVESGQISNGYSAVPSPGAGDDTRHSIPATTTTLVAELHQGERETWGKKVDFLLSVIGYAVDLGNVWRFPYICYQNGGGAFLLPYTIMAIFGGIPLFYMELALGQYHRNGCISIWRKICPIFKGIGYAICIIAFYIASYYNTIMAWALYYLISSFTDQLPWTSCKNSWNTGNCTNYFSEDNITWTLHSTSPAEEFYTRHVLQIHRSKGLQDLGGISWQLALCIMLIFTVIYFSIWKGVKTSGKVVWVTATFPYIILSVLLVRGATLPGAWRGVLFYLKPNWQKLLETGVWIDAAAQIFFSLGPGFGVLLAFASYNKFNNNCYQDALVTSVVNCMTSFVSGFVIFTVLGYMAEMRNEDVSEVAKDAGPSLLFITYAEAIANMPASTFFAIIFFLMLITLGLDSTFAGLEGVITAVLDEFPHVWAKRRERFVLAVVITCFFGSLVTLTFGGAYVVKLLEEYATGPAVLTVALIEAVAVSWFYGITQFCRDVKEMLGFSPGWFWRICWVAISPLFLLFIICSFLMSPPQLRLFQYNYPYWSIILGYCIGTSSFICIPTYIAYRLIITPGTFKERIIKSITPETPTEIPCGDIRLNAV

NET = NET (Homo sapiens, UniProt P23975); test: Stereoselective uptake into NET-overexpressing HEK293 cells; conditions: for Vmax ± SEM / Km: HEK293 cells overexpressing human NET, racemic substrate, two minutes; for Vmax ± SEM: net uptake; for Clint ± SEM / Stereoselectivity ClInt / Stereoselectivity Vmax / Stereoselectivity Km: NET; for Clint ± SEM: quotient of vmax over Km; for Stereoselectivity ClInt / Stereoselectivity Vmax / Stereoselectivity Km: ratio between enantiomers; for Stereoselectivity ClInt / Stereoselectivity Vmax: given as for (S) or for 2; for Stereoselectivity Km: given as for (S) or for 2 (second-eluting); for Km: read-out: Km ± SEM, net uptake minus empty vector control;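 for all read-outs here: intracellular enantiomers quantified in cell lysates by chiral HPLC-MS/MS after a 2 min substrate incubation, with uptake normalized to total cellular protein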
Sequence of NET (P23975 whole entry): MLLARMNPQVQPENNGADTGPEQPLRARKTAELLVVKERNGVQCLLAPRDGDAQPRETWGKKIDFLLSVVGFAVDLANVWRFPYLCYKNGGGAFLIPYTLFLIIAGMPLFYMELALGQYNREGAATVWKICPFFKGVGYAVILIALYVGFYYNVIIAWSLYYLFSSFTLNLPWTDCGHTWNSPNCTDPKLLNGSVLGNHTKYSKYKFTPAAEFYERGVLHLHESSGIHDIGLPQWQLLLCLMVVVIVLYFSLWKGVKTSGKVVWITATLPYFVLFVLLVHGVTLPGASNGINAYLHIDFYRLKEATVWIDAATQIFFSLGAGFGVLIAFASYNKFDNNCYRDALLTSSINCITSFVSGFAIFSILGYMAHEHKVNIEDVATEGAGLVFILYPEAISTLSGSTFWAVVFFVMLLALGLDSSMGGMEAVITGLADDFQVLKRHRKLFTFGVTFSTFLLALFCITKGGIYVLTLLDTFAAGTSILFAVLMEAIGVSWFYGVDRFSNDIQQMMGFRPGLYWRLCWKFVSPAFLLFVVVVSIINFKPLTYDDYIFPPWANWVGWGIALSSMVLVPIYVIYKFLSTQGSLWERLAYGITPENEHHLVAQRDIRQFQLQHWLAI
Procedure: (§1) All transport experiments were carried out in HEK293 cells stably overexpressing human MATs or OCTs. […] All cells were regularly cultivated in DMEM supplemented with 10% (v/v) FCS, penicillin (100 U/mL) and streptomycin (100 μg/mL)and kept in culture for no longer than 30 passages.
(§2) For the uptake experiments, 300,000 cells were plated in poly-D-lysine precoated 24-well plates 48 h ahead of the transport experiment. On the day of experiment, cells were initially washed once with 37 °C pre-warmed HBSS+ (Hanks buffered salt solution supplemented with 10 mM HEPES) and subsequently incubated with the substrates dissolved in pre-warmed HBSS+ for exactly two minutes. Incubation was stopped by adding ice-cold HBSS+ followed by two washing steps. After this, cells were lysed with 80% acetonitrile containing 10 ng/mL milnacipran as internal standard for high-performance liquid chromatography coupled to tandem mass spectrometry (HPLC-MS/MS) analysis. For every experiment, two additional wells per cell line were lysed using RIPA buffer for protein quantification. Total protein was quantified using the bicinchoninic acid assay [42]. This was later used for normalization of the uptake data.
(§3) Intracellularly accumulated test substances were quantified by HPLC-MS/MS analysis using a Shimadzu Nexera HPLC system with a SIL-30AC autosampler, a CTO-20AC column oven, a LC-30AD pump, and a CBM-20A controller (Shimadzu, Kyoto, Japan). Stereoselective chromatography was carried out on a [sequence] CBH HPLC column (100 × 3 mm inner dimension with 5 μM particle size; Sigma-Aldrich, Darmstadt, Germany) with a corresponding 10 × 3 mm guard column. Reversed phased chromatography was carried out using an ammonium acetate (NH4Ac) buffered aqueous mobile phase with isopropyl alcohol (IPA) as organic solvent. […] The order of elution of the enantiomers was obtained from available reference literature [43] or by applying enantiopure reference compounds to the chiral HPLC. […] Given the structural similarity of the investigated substances and the fact that separation was performed on the same column with almost identical mobile phases, we assume that this order of elution for our compound set is always the (R)- before the (S)-enantiomer.
(§4) Detection was performed with an API 4000 tandem mass spectrometer (AB SCIEX, Darmstadt, Germany) operating in multiple-reaction-monitoring mode. Quantification was performed using the Analyst 1.6.2 software (AB SCIEX, Darmstadt, Germany) and quantified by comparison to standard curves with known concentrations.
(§5) All uptake data were normalized to protein content to account for variation in the number of seeded sells. Transporter-mediated net uptake was calculated by subtracting uptake into empty vector-transfected control cells from uptake into transporter-transfected cells. Kinetic parameters were then determined after non-linear regression following the Michaelis–Menten equation (v = vmax × [S]/(Km + [S])) using GraphPad Prism (Version 5.01 for Windows, GraphPad Software, La Jolla, CA, USA). Vmax refers to the maximum transport velocity and Km is defined as the substance concentration required to reach half of vmax. The intrinsic clearance Clint was calculated as the quotient of vmax over Km.

DAT = DAT (Homo sapiens, UniProt Q01959); test: Stereoselective uptake into DAT-overexpressing HEK293 cells; conditions: for Clint ± SEM: quotient of vmax over Km; for Stereoselectivity ClInt / Stereoselectivity Vmax / Stereoselectivity Km: ratio between enantiomers; for Stereoselectivity ClInt / Stereoselectivity Vmax: given as for (S) or for 2; for Stereoselectivity Km: given as for (S) or for 2 (second-eluting); for Vmax ± SEM / Km: HEK293 cells overexpressing human DAT, racemic substrate, two minutes; for Vmax ± SEM: net uptake; for Km: read-out: Km ± SEM, net uptake minus empty vector control;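 for all read-outs here: intracellular accumulation measured by chiral HPLC-MS/MS in stably transfected HEK293 cells, normalized to total protein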
Sequence of DAT (Q01959 whole entry): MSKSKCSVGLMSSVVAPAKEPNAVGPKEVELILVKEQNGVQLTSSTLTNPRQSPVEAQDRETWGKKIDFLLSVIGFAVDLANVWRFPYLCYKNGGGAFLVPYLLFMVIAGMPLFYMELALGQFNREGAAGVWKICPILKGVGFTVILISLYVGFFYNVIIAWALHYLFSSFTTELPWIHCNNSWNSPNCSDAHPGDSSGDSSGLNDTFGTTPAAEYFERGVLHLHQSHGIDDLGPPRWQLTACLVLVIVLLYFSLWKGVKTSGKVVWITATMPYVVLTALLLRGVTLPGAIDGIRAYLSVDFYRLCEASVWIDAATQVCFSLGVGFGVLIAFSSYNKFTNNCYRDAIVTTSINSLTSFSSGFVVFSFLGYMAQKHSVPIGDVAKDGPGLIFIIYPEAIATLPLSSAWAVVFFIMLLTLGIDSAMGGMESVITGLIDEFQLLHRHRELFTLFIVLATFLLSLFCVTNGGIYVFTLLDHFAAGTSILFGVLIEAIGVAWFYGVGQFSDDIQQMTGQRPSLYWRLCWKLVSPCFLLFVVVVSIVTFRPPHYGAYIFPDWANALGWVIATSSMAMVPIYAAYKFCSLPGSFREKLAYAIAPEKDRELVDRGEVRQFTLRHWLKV

SERT [2] = biological target: T1, SERT; test: Stereoselective uptake into SERT-overexpressing HEK293 cells; conditions: for Vmax ± SEM / Km: HEK293 cells overexpressing human SERT, racemic substrate, two minutes; for Vmax ± SEM: net uptake; for Clint ± SEM: SERT, quotient of vmax over Km; for Km: read-out: Km ± SEM, net uptake minus empty vector control;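 for all read-outs here: uptake into HEK293 cells stably expressing human SERT over 2 min, enantiomers measured in cell lysate by chiral HPLC-MS/MS, normalized to total protein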
OCT1 = biological target: T2, OCT1 (Homo sapiens, UniProt O15245); test: Stereoselective uptake into OCT1-overexpressing HEK293 cells; conditions: for Vmax ± SEM / Km: HEK293 cells overexpressing human OCT1, racemic substrate, two minutes; for Vmax ± SEM: net uptake; for Clint ± SEM / Stereoselectivity ClInt / Stereoselectivity Vmax / Stereoselectivity Km: OCT1; for Clint ± SEM: quotient of vmax over Km; for Stereoselectivity ClInt / Stereoselectivity Vmax / Stereoselectivity Km: ratio between enantiomers; for Stereoselectivity Km: given as for (S) or for 2 (second-eluting); for Km: read-out: Km ± SEM, net uptake minus empty vector control;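 for all read-outs here: enantiomers quantified inside cells by chiral HPLC-MS/MS, uptake normalized to total protein from bicinchoninic acid assay, substrates applied in HBSS+ buffer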
T2 sequence (O15245 1-554): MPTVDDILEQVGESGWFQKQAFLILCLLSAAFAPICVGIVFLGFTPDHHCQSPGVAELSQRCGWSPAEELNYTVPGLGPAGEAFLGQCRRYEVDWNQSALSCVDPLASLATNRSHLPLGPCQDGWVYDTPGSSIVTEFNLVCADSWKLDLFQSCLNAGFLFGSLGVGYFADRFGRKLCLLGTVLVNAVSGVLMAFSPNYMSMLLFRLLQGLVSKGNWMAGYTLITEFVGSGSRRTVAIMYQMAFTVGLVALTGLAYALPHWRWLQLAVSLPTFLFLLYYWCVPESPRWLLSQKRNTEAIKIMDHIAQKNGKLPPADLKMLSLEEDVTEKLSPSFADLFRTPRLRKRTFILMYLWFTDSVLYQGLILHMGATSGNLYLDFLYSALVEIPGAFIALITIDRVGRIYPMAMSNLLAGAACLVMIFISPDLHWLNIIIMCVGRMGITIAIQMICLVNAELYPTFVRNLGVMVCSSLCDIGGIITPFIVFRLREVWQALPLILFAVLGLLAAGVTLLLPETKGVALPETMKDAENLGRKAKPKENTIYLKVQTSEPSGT
Procedure: as §1, §2, §3, §4, §5

OCT3 = biological target: T3, OCT3 (Homo sapiens, UniProt O75751); test: Stereoselective uptake into OCT3-overexpressing HEK293 cells; conditions: for Vmax ± SEM / Km: HEK293 cells overexpressing human OCT3, racemic substrate, two minutes; for Vmax ± SEM: net uptake; for Clint ± SEM: quotient of vmax over Km; for Stereoselectivity Vmax: given as for (R) or for 1; for Km: read-out: Km ± SEM, net uptake minus empty vector control;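 for all read-outs here: intracellular accumulation in HEK293 cells measured by chiral HPLC-MS/MS after a 2 min substrate exposure at 37 °C, uptake normalized to total protein (bicinchoninic acid assay)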
T3 sequence (O75751 1-556): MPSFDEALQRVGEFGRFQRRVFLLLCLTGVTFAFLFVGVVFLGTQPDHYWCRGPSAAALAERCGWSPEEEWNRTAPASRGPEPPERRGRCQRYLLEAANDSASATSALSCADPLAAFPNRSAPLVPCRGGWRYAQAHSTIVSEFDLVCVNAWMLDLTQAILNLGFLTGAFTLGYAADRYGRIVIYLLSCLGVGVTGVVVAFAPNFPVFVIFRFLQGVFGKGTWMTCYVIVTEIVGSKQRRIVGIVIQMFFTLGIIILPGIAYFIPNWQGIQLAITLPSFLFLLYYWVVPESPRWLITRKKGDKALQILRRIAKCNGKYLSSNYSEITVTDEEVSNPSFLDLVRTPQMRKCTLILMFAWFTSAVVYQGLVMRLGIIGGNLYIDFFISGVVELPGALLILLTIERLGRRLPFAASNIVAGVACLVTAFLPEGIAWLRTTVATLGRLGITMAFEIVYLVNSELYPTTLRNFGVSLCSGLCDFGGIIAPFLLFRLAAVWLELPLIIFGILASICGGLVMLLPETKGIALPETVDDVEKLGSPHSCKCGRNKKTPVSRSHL
Procedure: as §1, §2, §3, §4, §5

OCT2 [3] = biological target: T4, OCT2 (Homo sapiens, UniProt O15244); test: Stereoselective uptake into OCT2 (wild-type)-overexpressing HEK293 cells; conditions: for Vmax ± SEM / Km: HEK293 cells overexpressing human OCT2, racemic substrate, two minutes; for Vmax ± SEM: net uptake; for Clint ± SEM: OCT2, quotient of vmax over Km; for Km: read-out: Km ± SEM, net uptake minus empty vector control
T4 sequence (O15244 1-555 S270A): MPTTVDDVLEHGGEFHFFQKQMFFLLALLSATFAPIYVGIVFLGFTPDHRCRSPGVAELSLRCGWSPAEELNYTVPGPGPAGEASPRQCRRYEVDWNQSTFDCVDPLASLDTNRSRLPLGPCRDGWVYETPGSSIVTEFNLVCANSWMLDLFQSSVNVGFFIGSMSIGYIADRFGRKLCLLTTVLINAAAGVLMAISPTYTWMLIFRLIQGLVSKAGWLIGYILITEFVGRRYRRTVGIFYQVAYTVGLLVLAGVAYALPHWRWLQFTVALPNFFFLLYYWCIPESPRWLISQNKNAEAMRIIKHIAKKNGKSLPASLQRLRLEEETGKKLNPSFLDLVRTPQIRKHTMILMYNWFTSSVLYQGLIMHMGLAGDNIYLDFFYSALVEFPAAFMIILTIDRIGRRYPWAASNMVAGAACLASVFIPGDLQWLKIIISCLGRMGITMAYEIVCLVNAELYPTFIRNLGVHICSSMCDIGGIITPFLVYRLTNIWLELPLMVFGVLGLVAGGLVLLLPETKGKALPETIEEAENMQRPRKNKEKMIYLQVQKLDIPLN
Procedure: as §1, §2
(§6) Intracellularly accumulated test substances were quantified by HPLC-MS/MS analysis using a Shimadzu Nexera HPLC system with a SIL-30AC autosampler, a CTO-20AC column oven, a LC-30AD pump, and a CBM-20A controller (Shimadzu, Kyoto, Japan). Stereoselective chromatography was carried out on a [sequence] CBH HPLC column (100 × 3 mm inner dimension with 5 μM particle size; Sigma-Aldrich, Darmstadt, Germany) with a corresponding 10 × 3 mm guard column. Reversed phased chromatography was carried out using an ammonium acetate (NH4Ac) buffered aqueous mobile phase with isopropyl alcohol (IPA) as organic solvent. […] The order of elution of the enantiomers was obtained from available reference literature [43] or by applying enantiopure reference compounds to the chiral HPLC. […] However, in every other case where the order of elution was available, the (R)-enantiomer eluted first. Given the structural similarity of the investigated substances and the fact that separation was performed on the same column with almost identical mobile phases, we assume that this order of elution for our compound set is always the (R)- before the (S)-enantiomer.
as §4, §5
(§7) HEK293 cells stably overexpressing wild-type or mutant OCT2 were incubated with 100 μM racemic substance for two minutes.

OCT2 [4] = biological target: T5, OCT2 (Homo sapiens, UniProt O15244, S270A); test: as above; conditions: OCT2, ratio between enantiomers; for Stereoselectivity Km: given as for (R) or for 1 (first-eluting)
T5 sequence (O15244 1-555 S270A): T4 sequence (O15244 1-555 S270A)
Procedure: as §1, §2, §6, §4, §5, §7

OCT2 A270S variant = test: Stereoselective uptake into OCT2 A270S variant-overexpressing HEK293 cells; conditions: 100 μM racemic substance, two minutes; for Transporter selectivity: OCT2 wild-type versus A270S, given as for WT;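 for all read-outs here: uptake into HEK293 cells stably overexpressing human OCT2 variants, intracellular enantiomers quantified by chiral HPLC-MS/MS and normalized to total protein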
[5] = OCT3, ratio between enantiomers
[6] = OCT3, ratio between enantiomers, given as for (R) or for 1 (first-eluting)
[7] = OCT3, ratio between enantiomers, given as for (S) or for 2

Compound	Stereoselectivity ClInt (SERT [1])	Vmax ± SEM (NET)	Clint ± SEM (NET)	Stereoselectivity ClInt (NET)	Stereoselectivity Vmax (NET)	Stereoselectivity Km (NET)	Km (NET)	Stereoselectivity Km (SERT [2])	Stereoselectivity Vmax (SERT [2])	Vmax ± SEM (SERT [2])	Clint ± SEM (SERT [2])	Km (SERT [2])	Vmax ± SEM (OCT1)	Clint ± SEM (OCT1)	Km (OCT1)	Vmax ± SEM (OCT3)	Clint ± SEM (OCT3; OCT3)	Stereoselectivity Vmax (OCT3; [5])	Km (OCT3)	Vmax ± SEM (OCT2 [3])	also measured
NC[C@H](O)c1ccc(O)c(O)c1 [(R)-Norepinephrine]	1.78-fold for (R)	262 ± 15 pmol × mg Protein^−1 × min^−1	113.3 ± 47.6 mL × g Protein^−1 × min^−1	1.05-fold for (S)	1.38-fold for (S) **	1.32-fold for (S)	2.31 ± 0.84 µM	1.01-fold for (R)	1.79-fold for (R) **	727 ± 60 pmol × mg Protein^−1 × min^−1	4.12 ± 1.31 mL × g Protein^−1 × min^−1	176 ± 41.7 µM	1524 ± 330 pmol × mg Protein^−1 × min^−1	0.45 ± 0.28 mL × g Protein^−1 × min^−1	3390 ± 1420 µM	3683 ± 360 pmol × mg Protein^−1 × min^−1	6.61 ± 3.02 mL × g Protein^−1 × min^−1	1.01-fold for (R)	557 ± 200 µM	6603 ± 664 pmol × mg Protein^−1 × min^−1	Clint ± SEM (DAT; DAT): 138.8 ± 19.7 mL × g Protein^−1 × min^−1; Stereoselectivity ClInt (DAT; DAT): 1.12-fold for (S); Stereoselectivity Vmax (DAT; DAT): 1.47-fold for (S) ***; Stereoselectivity Km (DAT; DAT): 1.31-fold for (S); Vmax ± SEM (DAT): 3085 ± 81 pmol × mg Protein^−1 × min^−1; Km (DAT): 22.2 ± 2.6 µM; Stereoselectivity ClInt (OCT1; given as for (S) or for 2): 1.06-fold for (S); Stereoselectivity Vmax (OCT1; given as for (S) or for 2): 1.16-fold for (S); Stereoselectivity Km (OCT1): 1.09-fold for (S); Stereoselectivity Km (OCT3; [6]): 1.07-fold for (R); Stereoselectivity ClInt (OCT3; [7]): 1.07-fold for (S); Clint ± SEM (OCT2 [3]): 3.81 ± 1.30 mL × g Protein^−1 × min^−1; Km (OCT2 [3]): 1730 ± 418 µM; Stereoselectivity ClInt (OCT2 [4]; given as for (R) or for 1): 1.64-fold for (R); Stereoselectivity Vmax (OCT2 [4]; given as for (R) or for 1): 2.17-fold for (R) **; Stereoselectivity Km (OCT2 [4]): 1.32-fold for (R); Transporter selectivity (OCT2 A270S variant): 1.21 fold
NC[C@@H](O)c1ccc(O)c(O)c1 [(S)-Norepinephrine]	1.78-fold for (R)	362 ± 20 pmol × mg Protein^−1 × min^−1	118.7 ± 46.0 mL × g Protein^−1 × min^−1	1.05-fold for (S)	1.38-fold for (S) **	1.32-fold for (S)	3.05 ± 1.01 µM	1.01-fold for (R)	1.79-fold for (R) **	405 ± 42 pmol × mg Protein^−1 × min^−1	2.31 ± 0.93 mL × g Protein^−1 × min^−1	175 ± 52.2 µM	1766 ± 258 pmol × mg Protein^−1 × min^−1	0.48 ± 0.20 mL × g Protein^−1 × min^−1	3710 ± 1010 µM	3662 ± 299 pmol × mg Protein^−1 × min^−1	7.05 ± 2.73 mL × g Protein^−1 × min^−1	1.01-fold for (R)	519 ± 158 µM	3042 ± 258 pmol × mg Protein^−1 × min^−1	Clint ± SEM (DAT; DAT): 155.5 ± 21.4 mL × g Protein^−1 × min^−1; Stereoselectivity ClInt (DAT; DAT): 1.12-fold for (S); Stereoselectivity Vmax (DAT; DAT): 1.47-fold for (S) ***; Stereoselectivity Km (DAT; DAT): 1.31-fold for (S); Vmax ± SEM (DAT): 4524 ± 122 pmol × mg Protein^−1 × min^−1; Km (DAT): 29.1 ± 3.2 µM; Stereoselectivity ClInt (OCT1; given as for (S) or for 2): 1.06-fold for (S); Stereoselectivity Vmax (OCT1; given as for (S) or for 2): 1.16-fold for (S); Stereoselectivity Km (OCT1): 1.09-fold for (S); Stereoselectivity Km (OCT3; [6]): 1.07-fold for (R); Stereoselectivity ClInt (OCT3; [7]): 1.07-fold for (S); Clint ± SEM (OCT2 [3]): 2.32 ± 0.71 mL × g Protein^−1 × min^−1; Km (OCT2 [3]): 1310 ± 291 µM; Stereoselectivity ClInt (OCT2 [4]; given as for (R) or for 1): 1.64-fold for (R); Stereoselectivity Vmax (OCT2 [4]; given as for (R) or for 1): 2.17-fold for (R) **; Stereoselectivity Km (OCT2 [4]): 1.32-fold for (R); Transporter selectivity (OCT2 A270S variant): 1.22 fold
C[C@@H]1NCCc2cc(O)c(O)cc21 [Salsolinol-1, Salsolinol]	2.48 fold	112 pmol × mg Protein^−1 × min^−1	1.24 mL × g Protein^−1 × min^−1	1.19 fold	1.35 fold	1.13 fold	90.1 µM	1.85 fold	1.34 fold	229 pmol × mg Protein^−1 × min^−1	1.77 mL × g Protein^−1 × min^−1	129 µM	1450 pmol × mg Protein^−1 × min^−1	10.9 mL × g Protein^−1 × min^−1	133 µM	705 pmol × mg Protein^−1 × min^−1	3.80 mL × g Protein^−1 × min^−1	1.01 fold	186 µM	9083 pmol × mg Protein^−1 × min^−1	Saturable net uptake (DAT; DAT, result in words): No saturable net uptake; Stereoselectivity ClInt (OCT1; given as for (R) or for 1 (also 1.00-fold for 1/2)): 1.00 fold; Stereoselectivity ClInt (OCT3): 1.21 fold; Stereoselectivity Km (OCT3; OCT3, ratio between enantiomers, given as for (S) or for 2 (second-eluting)): 1.20 fold; Clint ± SEM (OCT2 [3]): 40.9 mL × g Protein^−1 × min^−1; Km (OCT2 [3]): 222 µM; Stereoselectivity Km (OCT2 [4]): 1.04 fold; Stereoselectivity ClInt (OCT2 [4]; given as for (S) or for 2): 1.05 fold; Stereoselectivity Vmax (OCT2 [4]; given as for (S) or for 2): 1.01 fold; Net uptake by A270S variant in comparison to the wild-type (OCT2 A270S variant): 66%; Transporter selectivity (OCT2 A270S variant; listed as (R)-Salsolinol): 1.50 fold
